{"source": "patent US6872722B2", "about": "“Therapies for tissue damage resulting from ischemia” (Pfizer Inc, priority 2001, dated 2005)"}
{"smiles": "O=c1ccc(S(=O)(=O)c2cccc(Br)c2)n[nH]1", "note": "[Example 4I, 6-(3-Bromo-benzenesulfonyl)-2H-pyridazin-3-one]", "values": [{"measurement": "melting point", "result": "> 220", "unit": "°C"}]}
